These results are taken from patent publication US4308273A, “1,6-Naphthyridine derivatives, and antidinic and cerebral circulation improver containing such derivatives” (Nippon Kayaku Kabushiki Kaisha, priority 1978, dated 1981).

Like-named read-outs stand apart in the source and are kept apart here.

The term LD50 denotes the dose at which mortality reaches 50%. A low value points to a more toxic substance.

A short description of data set [1]: Acute toxicity (LD50) by intraperitoneal injection. As to conditions: mouse, in vivo, ip. The procedure: LD50 values of the compounds by intraperitoneal injection in mice were determined.
A short description of data set [2]: Inhibition of spontaneous nystagmus produced by unilateral destruction of the labyrinth (anti-vertigo action). The following applies: cats, 12 mg/kg injected intravenously; for inhibition at 12 mg/kg: Felis catus, iv, read-out: Effect of compounds on the nystagmus expressed as inhibitory percentage. It counts as in vivo. The procedure: (1) It is well known that vertigo resulting from the disturbance of the peripheral labyrinth is accompanied by nystagmus. So, we acutely produced the spontaneous nystagmus by unilateral destruction of the labyrinth in cats and used it as an experimental model of vertigo. a pair of Ag--AgCl cup electrodes was placed laterally to both orbits and an indifferent electrode on the forehead. The nystagmus was recorded through an amplifier. The inhibitory effect of the compounds on the nystagmus was expressed by [formula] where A is the frequency of the nystagmus in ten seconds before administration of the compounds and B is the frequency of the nystagmus at the maximum inhibitory point after administration. The duration of the effect was also measured. Compounds dissolved in saline were injected into the femoral vein. Betahistine and diphenidol were used as standard drugs.
A: Doses of compounds injected intraveneously.
B: Effect of compounds on the nystagmus expressed as inhibitory
C: Duration of the effect of compounds

Data set [3] can be described thus: Cerebral vasodilating action: vertebral arterial flow, intra-arterial injection. It counts as in vivo. As to conditions: Canis lupus familiaris; dogs, 1 mg intraarterially; read-out: Percent increase in vertebral arterial flow when injected intraarterially. The procedure: A: Percent increase in vertebral arterial flow when injected
intraarterially (1 mg) to dogs.
(1) For the experimental evaluation of cerebral vasodilating action, the canine vertebral arterial preparation was used. The carotid arterial blood was led to the vertebral artery by a short extracorporeal loop. The vertebral arterial flow was measured by an electromagnetic flow transducer inserted in the circuit. The action of the compounds on the vertebral arterial flow was expressed by percent increase when 1 mg of each compound was injected intra-arterially.

Data set [4] in a line: Effects of intravenous injection on mean arterial pressure, heart rate and vertebral arterial flow in anesthetized dogs. As to conditions: for change in vivo at 1 mg/kg: Canis lupus familiaris, iv, read-out: Percent increase in vertebral arterial flow when injected intravenously; for Changes in heart rate when injected intravenously / Changes in systemic blood pressure when injected intravenously: anesthetized dogs, 1 mg/kg intravenously.
Experimental: (§1) Pressure in the carotid artery was measured by a pressure transducer and mean arterial pressure was obtained by electrical integration. Heart rate was obtained by a cardiotachometer, triggered by a signal from the pressure pulse. The vertebral arterial flow was measured by fitting an electromagnetic flow transducer. The action on systemic mean arterial pressure, heart rate and vertebral arterial flow were represented by Δ mmHg, Δ beats/min and percent increase.

The conditions of data set [5]: dog, in vivo, iv, 1 mg/kg.
Experimental: as §1
Setting [6] is: male mice, intraperitoneal injection (Table 3).
Setting [7] is: mice, intraperitoneal injection (Table 4).

With `CCCCCC=CCN1CCc2ncccc2C1` [Compound 19], the median lethal dose (LD50) in data set [1] (setting [6]) was found to be 304 mg/kg. For the same compound, in data set [2], the inhibition at 12 mg/kg came to 65% and the “Duration of the effect of compounds (nystagmus)” value (shortened to “Duration”) was 25 min.

Regarding `COc1ccc(CN2CCc3ncccc3C2)cc1OC` [Compound 46, 5,6,7,8-tetrahydro-6-(3,4-dimethoxybenzyl)-1,6-naphthyridine], the LD50 in data set [1] (setting [7]) was 262 mg/kg. The change in vivo at 1 mg in data set [3] came to 99%. Further, in data set [4], the change in vivo at 1 mg/kg came to 50%, the “Changes in heart rate when injected intravenously” value (“Changes in heart rate” below) is given as “+32 Δ beats/min” and the “Changes in systemic blood pressure when injected intravenously” value (from here on “Changes in systemic blood pressure”) is -27.2 Δ mmHg.

With `Cc1ccc(C)c(C=CCN2CCc3ncccc3C2)c1` [Compound 72], the LD50 in data set [1] (setting [7]) came out at 242 mg/kg. Besides, in data set [3], the change in vivo at 1 mg came out at 92%. In addition, in data set [4], the change in vivo at 1 mg/kg was 40%, the “Changes in heart rate” value is recorded as “+48 Δ beats/min” and the “Changes in systemic blood pressure” value is reported as -38.3 Δ mmHg.

In the case of `CC(C)CCN1CCc2ncccc2C1` [Compound 7], the median lethal dose (LD50) in data set [1] (setting [6]) was 219 mg/kg. Also, in data set [2], the inhibition at 12 mg/kg came out at 85% and the “Duration” value is 6 min.

On to `c1ccc(CCN2CCc3ncccc3C2)cc1` [Compound 55], for which the LD50 in data set [1] (setting [6]) was 219 mg/kg. In data set [2], the inhibition at 12 mg/kg is 92% and the “Duration” value was determined as 5 min.

With `CCCCCN1CCc2ncccc2C1` [Compound 6, 5,6,7,8-tetrahydro-6-n-amyl-1,6-naphthyridine], the median lethal dose (LD50) in data set [1] (setting [6]) was 165 mg/kg. Besides, in data set [2], the inhibition at 12 mg/kg was found to be 86% and the “Duration” value worked out at 10 min.

`c1ccc(OCCCN2CCc3ncccc3C2)cc1` [Compound 27]: the LD50 in data set [1] (setting [6]) worked out at 208 mg/kg. In data set [2], the inhibition at 12 mg/kg was 90% and the “Duration” value was found to be 30 min.

Regarding `c1ccc(CCCN2CCc3ncccc3C2)cc1` [Compound 57], in data set [1] (setting [6]), the LD50 was 159 mg/kg. Besides, in data set [2], the inhibition at 12 mg/kg worked out at 97% and the “Duration” value was found to be 10 min.

As for `Clc1ccc(C=CCN2CCc3ncccc3C2)cc1Cl` [Compound 71], in data set [1] (setting [7]), the LD50 is 199 mg/kg. Besides, in data set [3], the change in vivo at 1 mg was 116%. Also, in data set [4], the change in vivo at 1 mg/kg amounted to 44.4%, the “Changes in heart rate” value was “+40 Δ beats/min” and the “Changes in systemic blood pressure” value was -38.3 Δ mmHg.

In data set [1] (setting [6]), `CCCCCCCN1CCc2ncccc2C1` [Compound 9] returned an LD50 of 208 mg/kg. For the same compound, in data set [3], the change in vivo at 1 mg was 78%. In data set [2], the inhibition at 12 mg/kg turned out to be 79% and the “Duration” value amounted to 10 min. Also, in data set [4], the change in vivo at 1 mg/kg turned out to be 15.5%, the “Changes in heart rate” value is reported as “+8 Δ beats/min” and the “Changes in systemic blood pressure” value is -20.0 Δ mmHg.

Take `Clc1ccc(CN2CCc3ncccc3C2)cc1` [Compound 33]: the change in vivo at 1 mg in data set [3] came to 75%. For the same compound, in data set [4], the change in vivo at 1 mg/kg was found to be 30%, the “Changes in heart rate” value is listed as “+8 Δ beats/min” and the “Changes in systemic blood pressure” value is reported as -23.5 Δ mmHg.

In data set [1] (setting [6]), `CCCCCCN1CCc2ncccc2C1` [Compound 8] registered a 50% lethal dose (LD50) of 194 mg/kg. For the same compound, the change in vivo at 1 mg in data set [3] came out at 67%. Also, in data set [2], the inhibition at 12 mg/kg is 88% and the “Duration” value was determined as 10 min. Besides, in data set [4], the change in vivo at 1 mg/kg stood at 20.1%, the “Changes in heart rate” value is on record as “+8 Δ beats/min” and the “Changes in systemic blood pressure” value is listed as -18.5 Δ mmHg.

For `Cc1ccc(CN2CCc3ncccc3C2)cc1` [Compound 34], in data set [1] (setting [7]), the median lethal dose (LD50) turned out to be 518 mg/kg. Moreover, the change in vivo at 1 mg in data set [3] is 93%. In data set [4], the change in vivo at 1 mg/kg came to 18%, the “Changes in heart rate” value is given as “+8 Δ beats/min” and the “Changes in systemic blood pressure” value was -10.0 Δ mmHg.

`Clc1ccccc1C=CCN1CCc2ncccc2C1` [Compound 61]: the change in vivo at 1 mg in data set [3] is 84%. In data set [4], the change in vivo at 1 mg/kg turned out to be 29.2%, the “Changes in heart rate” value is “+24 Δ beats/min” and the “Changes in systemic blood pressure” value is -20.0 Δ mmHg.

As for `C(=C\c1ccccc1)/CN1CCc2ncccc2C1` [Compound 58, 5,6,7,8-tetrahydro-6-cinnamyl-1,6-naphthyridine], the LD50 in data set [1] (setting [6]) came to 263 mg/kg. Further, in data set [3], the change in vivo at 1 mg came out at 81%. For the same compound, in data set [2], the inhibition at 12 mg/kg was 53% and the “Duration” value turned out to be 35 min. Further, in data set [4], the change in vivo at 1 mg/kg worked out at 22.2%, the “Changes in heart rate” value is recorded as “+40 Δ beats/min” and the “Changes in systemic blood pressure” value was -13.3 Δ mmHg.

In data set [1] (setting [7]), `CCCCCCCCCCN1CCc2ncccc2C1` [Compound 11] displayed an LD50 of 156 mg/kg. The change in vivo at 1 mg in data set [3] came to 99%. In data set [4], the change in vivo at 1 mg/kg was 25%, the “Changes in heart rate” value is recorded as “+8 Δ beats/min” and the “Changes in systemic blood pressure” value is on record as -5.0 Δ mmHg.

With `C=CCCN1CCc2ncccc2C1` [Compound 14, 5,6,7,8-tetrahydro-6-(3-butenyl)-1,6-naphthyridine], the LD50 in data set [1] (setting [6]) turned out to be 239 mg/kg. In data set [2], the inhibition at 12 mg/kg is 77% and the “Duration” value came to 28 min.

As to `CC(C)(C)c1ccc(CN2CCc3ncccc3C2)cc1` [Compound 38], the change in vivo at 1 mg in data set [3] was 78%. Also, in data set [4], the change in vivo at 1 mg/kg came out at 28.6% and the “Changes in systemic blood pressure” value was -11.7 Δ mmHg.

As for `CCc1ccc(CN2CCc3ncccc3C2)cc1` [Compound 35], the change in vivo at 1 mg in data set [3] is 56%. Further, in data set [4], the change in vivo at 1 mg/kg came out at 27.3%, the “Changes in heart rate” value is on record as “+8 Δ beats/min” and the “Changes in systemic blood pressure” value was -21.7 Δ mmHg.

For `Clc1ccc(C=CCN2CCc3ncccc3C2)c(Cl)c1` [Compound 70], the median lethal dose (LD50) in data set [1] (setting [7]) was determined as 220 mg/kg. Further, the change in vivo at 1 mg in data set [3] turned out to be 158%. In data set [4], the change in vivo at 1 mg/kg came to 60%, the “Changes in heart rate” value is on record as “+16 Δ beats/min” and the “Changes in systemic blood pressure” value is given as -11.7 Δ mmHg.

`Clc1ccc(CN2CCc3ncccc3C2)cc1Cl` [Compound 44] yielded a 50% lethal dose (LD50) in data set [1] (setting [7]) of 270 mg/kg. Besides, in data set [3], the change in vivo at 1 mg came out at 107%. In data set [4], the change in vivo at 1 mg/kg came out at 30.8%, the “Changes in heart rate” value is “+32 Δ beats/min” and the “Changes in systemic blood pressure” value is on record as -16.7 Δ mmHg.

In turn, `c1ccc(CN2CCc3ncccc3C2)cc1` [Compound 31] came in with an LD50 in data set [1] (setting [6]) of 262 mg/kg. In data set [3], the change in vivo at 1 mg stood at 90%. In data set [2], the inhibition at 12 mg/kg came out at 57% and the “Duration” value was 9 min. Further, in data set [4], the change in vivo at 1 mg/kg turned out to be 36%, the “Changes in heart rate” value was “+16 Δ beats/min” and the “Changes in systemic blood pressure” value is -12.0 Δ mmHg.

In turn, `CC(C)c1ccc(CN2CCc3ncccc3C2)cc1` [Compound 37] returned an LD50 in data set [1] (setting [7]) of 300 mg/kg. Besides, the change in vivo at 1 mg in data set [3] came out at 110%. Also, in data set [4], the change in vivo at 1 mg/kg was 33.3% and the “Changes in systemic blood pressure” value is reported as -13.3 Δ mmHg.

In the case of `CCCCOc1ccc(CN2CCc3ncccc3C2)cc1OCCCC` [Compound 51], in data set [3], the change in vivo at 1 mg was determined as 77%. Besides, in data set [5], the “Changes in heart rate” value was 0 Δ beats/min and the “Changes in systemic blood pressure” value is 0 Δ mmHg. Moreover, in data set [4], the change in vivo at 1 mg/kg came to 16.7%.

In the case of `c1cnc2c(c1)CN(CC1CCC1)CC2` [Compound 23], the 50% lethal dose (LD50) in data set [1] (setting [6]) is 214 mg/kg. For the same compound, in data set [2], the inhibition at 12 mg/kg turned out to be 83% and the “Duration” value is 8 min.

As for `CC(C)=CCC/C(C)=C/CN1CCc2ncccc2C1` [Compound 20], the median lethal dose (LD50) in data set [1] (setting [7]) stood at 292 mg/kg. Moreover, the change in vivo at 1 mg in data set [3] was determined as 69%. Moreover, in data set [4], the change in vivo at 1 mg/kg is 20%, the “Changes in heart rate” value was “+12 Δ beats/min” and the “Changes in systemic blood pressure” value is recorded as -11.7 Δ mmHg.

Regarding `CC(C)c1cccc(CN2CCc3ncccc3C2)c1` [Compound 36], the 50% lethal dose (LD50) in data set [1] (setting [7]) came to 368 mg/kg. Also, the change in vivo at 1 mg in data set [3] stood at 100%. Also, in data set [4], the change in vivo at 1 mg/kg worked out at 22%, the “Changes in heart rate” value is recorded as “+8 Δ beats/min” and the “Changes in systemic blood pressure” value is given as -20.0 Δ mmHg.

In the case of `O=[N+]([O-])c1ccccc1C=CCN1CCc2ncccc2C1` [Compound 67], the change in vivo at 1 mg in data set [3] was found to be 75%. For the same compound, in data set [4], the change in vivo at 1 mg/kg amounted to 40%, the “Changes in heart rate” value was “+16 Δ beats/min” and the “Changes in systemic blood pressure” value is -31.7 Δ mmHg.
